Four compounds from US10844077B2, “Thiazolyl-containing compounds for treating proliferative diseases” (Dana-Farber Cancer Institute, Inc., priority 2014, dated 2020) can be followed below.

Holding throughout (format): cell-based
For one assay, the target named is CHK1 (Homo sapiens (Human), UniProt O14757). Briefly: KINATIV assay. The following applies: 1 μM, 90 minutes, BCWM.1 cells. In outline: (§1)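 Lysed cells serve as the kinase source; labeling uses an ATP-biotin probe added directly to lysate. ACTIVX then identifies and measures the captured kinases, with compound samples in duplicate against duplicate or quadruplicate controls.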

The target of a further assay is CHK2 (Homo sapiens (Human), UniProt O96017). Nature of the assay: KINATIV assay. The note with it: 1 μM, 90 minutes, BCWM.1 cells. The procedure, abridged: as §1
Another assay concerns the target FER (Homo sapiens (Human), UniProt P16591). Briefly: KINATIV assay. The note with it: 1 μM, 90 minutes, BCWM.1 cells. The procedure, abridged:
as §1

A further assay concerns the target GCK (Homo sapiens (Human), UniProt Q12851). Briefly: KINATIV assay. The following applies: 1 μM, 90 minutes, BCWM.1 cells. The procedure, abridged:
as §1

The target in another assay is MAP2K4 (Homo sapiens (Human), UniProt P45985). Briefly: KINATIV assay. The note with it: 1 μM, 90 minutes, BCWM.1 cells. In outline: as §1
Another assay concerns the target MAP2K5 (Homo sapiens (Human), UniProt Q13163). Briefly: KINATIV assay. The note with it: 1 μM, 90 minutes, BCWM.1 cells. The procedure, abridged:
as §1

Another assay addresses MST3 (Homo sapiens (Human), UniProt Q9Y6E0). Nature of the assay: KINATIV assay. The note with it: 1 μM, 90 minutes, BCWM.1 cells. In outline:
as §1

Another assay deals with NDR2 (Homo sapiens (Human), UniProt Q9Y2H1). Briefly: KINATIV assay. The note with it: 1 μM, 90 minutes, BCWM.1 cells. The procedure, abridged: as §1
A further assay concerns the target SMG1 (Homo sapiens (Human), UniProt Q96Q15). Nature of the assay: KINATIV assay. The note with it: 1 μM, 90 minutes, BCWM.1 cells. In outline:
as §1

In assay [1] the target is kinases in BCWM.1 cells (Homo sapiens, UniProt O15530). Briefly: KINATIV assay of compounds I-3 and I-9, lysate directly labeled with ATP-biotin probe (no GF). The following applies: PDK1; Lys1; 1 μM, 90 min; no GF. The method, then:
(§2) The cells were harvested and lysed. […] Bound kinases were identified and quantitated by ACTIVX as described in Patricelli et al., Biochemistry, 2007, 46(2): 350-358. The compounds were tested in duplicates against duplicate or quadruplicate control samples.

Assay [2] deals with kinases in BCWM.1 cells (Homo sapiens, UniProt O75385). Described as above. The following applies: ULK1; Lys2; 1 μM, 90 min; no GF. Here is the method: as §2
For assay [3], the target named is kinases in BCWM.1 cells (Homo sapiens, UniProt P21127). The description is as above. The following applies: PITSLRE; Lys2; 1 μM, 90 min; no GF. Here is the method: as §2
The target of assay [4] is kinases in BCWM.1 cells (Homo sapiens, UniProt Q6PHR2). The assay is described as above. The following applies: ULK3; Lys2; 1 μM, 90 min; no GF. The method, then:
as §2

For assay [5], the target named is kinases in BCWM.1 cells (Homo sapiens, UniProt Q8TD19). The description is as above. The note with it: NEK9; Lys2; 1 μM, 90 min; no GF. The method, then:
as §2

In assay [6] the target is kinases in BCWM.1 cells (Homo sapiens, UniProt Q96BR1). The description is as above. The note with it: SGK3; Lys1; 1 μM, 90 min; no GF. The method, then: as §2
Assay [7] concerns the target kinases in BCWM.1 cells (Homo sapiens, UniProt Q96S44). Described as above. The note with it: PRPK; ATP Loop; 1 μM, 90 min; no GF. Here is the method: as §2
Assay [8] has as its target kinases in BCWM.1 cells (Homo sapiens, UniProt Q9BYT3). Described as above. The following applies: STK33; Lys2; 1 μM, 90 min; no GF. Here is the method: as §2
The target of assay [9] is kinases in BCWM.1 cells (Homo sapiens, UniProt Q9UBS0). The description is as above. The note with it: p70S6Kb; Lys2; 1 μM, 90 min; no GF. The method, then:
as §2

Assay [10] addresses kinases in BCWM.1 cells (Homo sapiens, UniProt Q9UKI8). The description is as above. The following applies: TLK1; Lys2; 1 μM, 90 min; no GF. The method, then: as §2
Assay [11] addresses kinases in BCWM.1 cells (Homo sapiens, UniProt Q14289). The following applies: PYK2; Activation Loop; 1 μM, 90 min; GF. Here is the method: as §2
Assay [12] concerns the target kinases in BCWM.1 cells (Homo sapiens, UniProt Q15418). The note with it: Lys2, 1 μM, 90 min, GF. The method, then:
as §2

In assay [13] the test system is kinases in BCWM.1 cells. The note with it: 1 μM, GF. Here is the method: as §2
[14] abbreviates: PCTAIRE2, PCTAIRE3, Lys1, 90 min.
The mark [15] stands for this setting: RSK1 domain1, RSK2 domain1, RSK3 domain1, Lys2, 90 min.
Where [16] appears, read: ZC1/HGK, ZC2/TNIK, ZC3/MINK, Lys2, 90 min.

Structures are written as SMILES. Values joined by “and” are separate entries in the source; they are usually repeats but may differ in a detail not shown here. Equal entries are not always repeated. Where two headings read alike, the source gives them in different places.

Sequence of MAP2K5 (Q13163 whole entry): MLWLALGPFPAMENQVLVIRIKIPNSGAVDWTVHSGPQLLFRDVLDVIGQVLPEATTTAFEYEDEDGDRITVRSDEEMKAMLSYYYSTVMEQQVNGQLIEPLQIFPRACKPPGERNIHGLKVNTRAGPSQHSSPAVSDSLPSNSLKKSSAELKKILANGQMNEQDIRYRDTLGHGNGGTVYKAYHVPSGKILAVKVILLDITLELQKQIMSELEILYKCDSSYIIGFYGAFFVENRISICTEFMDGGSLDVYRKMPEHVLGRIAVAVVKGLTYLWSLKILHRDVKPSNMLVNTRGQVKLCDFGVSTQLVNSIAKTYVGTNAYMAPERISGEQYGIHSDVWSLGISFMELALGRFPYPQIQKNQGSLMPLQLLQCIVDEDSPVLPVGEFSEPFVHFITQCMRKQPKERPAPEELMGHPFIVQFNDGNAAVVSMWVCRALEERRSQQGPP
Sequence of GCK (Q12851 whole entry): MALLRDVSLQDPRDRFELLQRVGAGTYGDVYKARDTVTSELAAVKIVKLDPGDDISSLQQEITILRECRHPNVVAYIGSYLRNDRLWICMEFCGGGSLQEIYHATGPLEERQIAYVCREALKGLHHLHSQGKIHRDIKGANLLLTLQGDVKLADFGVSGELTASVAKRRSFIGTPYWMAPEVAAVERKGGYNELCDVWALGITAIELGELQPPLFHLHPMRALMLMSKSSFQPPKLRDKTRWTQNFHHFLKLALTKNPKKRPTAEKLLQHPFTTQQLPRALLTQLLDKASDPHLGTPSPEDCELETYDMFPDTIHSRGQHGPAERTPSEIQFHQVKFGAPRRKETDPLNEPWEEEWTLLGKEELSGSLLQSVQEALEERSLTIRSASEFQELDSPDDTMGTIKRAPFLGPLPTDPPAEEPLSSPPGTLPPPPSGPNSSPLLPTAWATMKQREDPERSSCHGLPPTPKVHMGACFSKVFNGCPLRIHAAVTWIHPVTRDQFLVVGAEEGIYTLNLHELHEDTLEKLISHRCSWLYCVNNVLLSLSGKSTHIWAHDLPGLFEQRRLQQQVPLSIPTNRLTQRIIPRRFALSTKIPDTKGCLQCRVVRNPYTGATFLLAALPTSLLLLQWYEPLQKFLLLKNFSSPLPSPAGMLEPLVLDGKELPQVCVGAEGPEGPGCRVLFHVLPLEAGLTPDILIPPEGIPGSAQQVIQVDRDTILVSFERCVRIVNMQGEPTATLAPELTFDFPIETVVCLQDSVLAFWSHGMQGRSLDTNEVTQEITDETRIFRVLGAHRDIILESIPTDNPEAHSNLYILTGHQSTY
Sequence of FER (P16591 whole entry): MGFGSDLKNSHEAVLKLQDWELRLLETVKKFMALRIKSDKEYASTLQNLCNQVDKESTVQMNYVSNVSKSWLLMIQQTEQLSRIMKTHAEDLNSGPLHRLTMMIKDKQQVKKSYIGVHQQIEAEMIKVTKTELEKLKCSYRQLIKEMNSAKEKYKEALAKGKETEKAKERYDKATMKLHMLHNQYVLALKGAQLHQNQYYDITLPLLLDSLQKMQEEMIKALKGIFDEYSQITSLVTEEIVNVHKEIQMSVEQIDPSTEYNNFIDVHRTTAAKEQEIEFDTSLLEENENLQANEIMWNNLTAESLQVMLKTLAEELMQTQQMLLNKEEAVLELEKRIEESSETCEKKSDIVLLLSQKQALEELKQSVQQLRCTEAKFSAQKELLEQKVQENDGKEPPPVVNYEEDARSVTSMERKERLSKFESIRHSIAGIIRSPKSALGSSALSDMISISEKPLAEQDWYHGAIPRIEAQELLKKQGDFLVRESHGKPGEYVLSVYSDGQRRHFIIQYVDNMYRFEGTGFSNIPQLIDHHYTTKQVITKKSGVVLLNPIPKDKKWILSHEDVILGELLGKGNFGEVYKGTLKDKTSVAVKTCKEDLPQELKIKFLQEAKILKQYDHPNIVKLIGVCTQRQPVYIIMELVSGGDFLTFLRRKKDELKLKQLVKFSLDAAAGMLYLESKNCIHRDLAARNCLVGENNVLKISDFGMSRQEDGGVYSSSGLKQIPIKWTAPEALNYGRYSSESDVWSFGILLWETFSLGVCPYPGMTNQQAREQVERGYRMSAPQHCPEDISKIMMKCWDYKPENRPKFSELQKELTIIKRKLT
Sequence of NDR2 (Q9Y2H1 whole entry): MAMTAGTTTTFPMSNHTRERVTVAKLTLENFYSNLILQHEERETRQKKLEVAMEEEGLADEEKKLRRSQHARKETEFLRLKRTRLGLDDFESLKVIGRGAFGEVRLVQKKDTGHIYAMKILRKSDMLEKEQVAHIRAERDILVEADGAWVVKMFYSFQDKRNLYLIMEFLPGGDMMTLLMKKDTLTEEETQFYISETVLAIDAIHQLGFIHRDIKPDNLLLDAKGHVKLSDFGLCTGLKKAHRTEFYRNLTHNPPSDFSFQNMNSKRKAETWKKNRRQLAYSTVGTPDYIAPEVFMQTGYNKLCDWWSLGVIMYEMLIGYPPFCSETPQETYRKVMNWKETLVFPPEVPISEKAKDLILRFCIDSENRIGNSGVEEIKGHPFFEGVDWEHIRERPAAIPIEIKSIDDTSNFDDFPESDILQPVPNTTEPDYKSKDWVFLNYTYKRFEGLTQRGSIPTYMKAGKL
Sequence of MAP2K4 (P45985 whole entry): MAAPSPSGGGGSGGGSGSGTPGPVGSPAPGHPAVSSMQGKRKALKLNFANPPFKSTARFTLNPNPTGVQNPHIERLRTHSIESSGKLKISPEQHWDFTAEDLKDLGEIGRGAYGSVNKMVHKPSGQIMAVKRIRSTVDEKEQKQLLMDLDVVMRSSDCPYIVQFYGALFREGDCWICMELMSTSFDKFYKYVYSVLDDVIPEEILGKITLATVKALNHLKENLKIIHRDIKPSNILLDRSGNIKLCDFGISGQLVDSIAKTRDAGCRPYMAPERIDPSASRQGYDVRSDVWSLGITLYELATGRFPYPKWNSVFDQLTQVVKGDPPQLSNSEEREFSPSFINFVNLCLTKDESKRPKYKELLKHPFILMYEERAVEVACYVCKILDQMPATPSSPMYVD
Sequence of MST3 (Q9Y6E0 whole entry): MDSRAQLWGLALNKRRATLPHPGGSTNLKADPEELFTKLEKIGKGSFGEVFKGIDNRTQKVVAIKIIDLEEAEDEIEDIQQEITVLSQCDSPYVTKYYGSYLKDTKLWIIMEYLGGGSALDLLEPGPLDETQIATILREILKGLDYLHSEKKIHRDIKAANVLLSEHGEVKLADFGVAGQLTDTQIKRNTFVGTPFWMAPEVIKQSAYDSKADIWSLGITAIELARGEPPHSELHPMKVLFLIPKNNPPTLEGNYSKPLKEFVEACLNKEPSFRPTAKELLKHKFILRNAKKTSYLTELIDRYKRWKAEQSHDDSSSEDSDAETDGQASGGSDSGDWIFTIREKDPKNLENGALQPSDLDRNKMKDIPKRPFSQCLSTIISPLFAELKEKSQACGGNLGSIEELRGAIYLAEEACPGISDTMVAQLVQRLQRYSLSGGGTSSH
Sequence of CHK1 (O14757 whole entry): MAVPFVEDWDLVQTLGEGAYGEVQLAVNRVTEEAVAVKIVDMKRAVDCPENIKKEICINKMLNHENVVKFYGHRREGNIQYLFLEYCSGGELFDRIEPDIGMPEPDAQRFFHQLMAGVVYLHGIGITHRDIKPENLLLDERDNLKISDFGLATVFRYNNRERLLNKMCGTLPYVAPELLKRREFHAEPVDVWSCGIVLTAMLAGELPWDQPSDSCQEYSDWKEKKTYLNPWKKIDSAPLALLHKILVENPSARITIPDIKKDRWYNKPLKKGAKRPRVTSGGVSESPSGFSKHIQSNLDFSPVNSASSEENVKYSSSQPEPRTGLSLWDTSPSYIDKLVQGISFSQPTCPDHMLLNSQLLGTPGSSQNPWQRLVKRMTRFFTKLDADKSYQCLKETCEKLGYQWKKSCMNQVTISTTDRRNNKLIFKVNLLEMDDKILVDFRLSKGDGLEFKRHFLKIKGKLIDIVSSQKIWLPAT
Sequence of CHK2 (O96017 whole entry): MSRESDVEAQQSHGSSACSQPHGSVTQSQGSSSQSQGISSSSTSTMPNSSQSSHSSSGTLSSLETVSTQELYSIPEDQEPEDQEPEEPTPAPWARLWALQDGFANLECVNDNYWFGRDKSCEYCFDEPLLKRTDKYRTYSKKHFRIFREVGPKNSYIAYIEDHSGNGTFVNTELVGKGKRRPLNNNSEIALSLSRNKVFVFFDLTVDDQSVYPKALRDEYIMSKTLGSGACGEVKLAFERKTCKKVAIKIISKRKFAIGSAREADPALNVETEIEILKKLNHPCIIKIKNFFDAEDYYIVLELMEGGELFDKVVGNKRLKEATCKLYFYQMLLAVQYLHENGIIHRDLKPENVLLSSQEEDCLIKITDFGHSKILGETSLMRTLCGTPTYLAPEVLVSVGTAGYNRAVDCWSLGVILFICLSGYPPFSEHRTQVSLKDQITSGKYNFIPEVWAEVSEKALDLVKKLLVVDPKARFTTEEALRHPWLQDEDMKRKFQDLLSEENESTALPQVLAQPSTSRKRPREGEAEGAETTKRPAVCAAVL

Take `C=CC(=O)N1CCC(CNc2nccc(Nc3ncc(C(=O)Nc4c(C)cccc4C)s3)n2)C1` (racemic) [Example I-8]: the “% change of MS signal compared to control sample” value (“% change of MS signal” below) at CHK1 is 15.3% and 24.7%; at CHK2, −14.3% and −10.9%; at FER, −7.7% and −4.8%; at GCK, 2.0% and 2.4%; on MAP2K4 it was −8.5% and −6.1%; on MAP2K5, 19.2% and 30.9%. Moreover, the “% change of MS signal” value on MST3 is −1.5% and −7.7%; at NDR2, 1.9% and 9.1%; at SMG1, 23.1%.
For the compound `C=CC(=O)N1CC[C@H](Nc2nccc(Nc3ncc(C(=O)Nc4c(C)cccc4C)s3)n2)C1` [Example I-3], the “% change of MS signal” value on kinases in BCWM.1 cells [1] is on record as −8.4%; at kinases in BCWM.1 cells [2], 9.9%; at kinases in BCWM.1 cells [3] it was −14.1%; at kinases in BCWM.1 cells [4], 8.2%; at kinases in BCWM.1 cells [5], 15.4%; at kinases in BCWM.1 cells [6], −0.4%. For the same compound, the “% change of MS signal” value is 2.1% at kinases in BCWM.1 cells [7]; −6.1% at kinases in BCWM.1 cells [8]; −36.7% on kinases in BCWM.1 cells [9]; −0.7% on kinases in BCWM.1 cells [10]; −12.1% at kinases in BCWM.1 cells [11]; −16.9% on kinases in BCWM.1 cells [12] (RSK1 domain1). Moreover, the “% change of MS signal” value on kinases in BCWM.1 cells [12] (RSK1 domain2) is on record as −20.8%; in the assay with kinases in BCWM.1 cells [13] (MST4, YSK1, Lys2, 90 min), 15.5%; in the assay with kinases in BCWM.1 cells [13] (NEK6, NEK7, Lys2, 90 min), −13.1%; in the assay with kinases in BCWM.1 cells [13] (setting [14]), −12%; with kinases in BCWM.1 cells [13] (PI4KA, PI4KAP2, ATP, 90 min), 12%; in the assay with kinases in BCWM.1 cells [13] (PKACa, PKCb, Lys2, 90 min), 3.3%. Further, the “% change of MS signal” value in the assay with kinases in BCWM.1 cells [13] (ROCK1, ROCK2, Lys2, 90 min) is on record as 12.5%; with kinases in BCWM.1 cells [13] (setting [15]), −7.3%; in the assay with kinases in BCWM.1 cells [13] (SRPK1, SRPK2, Lys1, 90 min), 22.3%; in the assay with kinases in BCWM.1 cells [13] (TAO1, TAO3, Lys2, 90 min) it was 14.3%; in the assay on kinases in BCWM.1 cells [13] (Wnk1, Wnk2, Wnk3, Lys2, 90 min) it was −1.2%; with kinases in BCWM.1 cells [13] (Wnk1, Wnk2, ATP Loop, 90 min) it was 6.8%. In addition, the “% change of MS signal” value in the assay with kinases in BCWM.1 cells [13] (setting [16]) is given as −0.1%; in the assay with kinases in BCWM.1 cells [13] (p38d, p38g, Lys2, 90 min), −0.7%.
For the compound `C=CC(=O)N1CCCCC(Nc2nccc(Nc3ncc(C(=O)Nc4c(C)cccc4C)s3)n2)C1` (centres unmarked) [Example I-7], the “% change of MS signal” value at FER is −5.8% and −5.3%; at GCK, −12.2% and −4.1%; at MAP2K5, 37.6% and 45.7%; at SMG1 it was 21.5%.
On to `CCC(=O)N1CC[C@H](Nc2nccc(Nc3ncc(C(=O)Nc4c(C)cccc4C)s3)n2)C1` [Example I-9], for which the “% change of MS signal” value at kinases in BCWM.1 cells [1] is −6.4%; on kinases in BCWM.1 cells [2] it was −5.7%; at kinases in BCWM.1 cells [3], −10.8%; on kinases in BCWM.1 cells [4], −16.4%; on kinases in BCWM.1 cells [5] it was −21.3%; at kinases in BCWM.1 cells [6], 1.1%. Moreover, the “% change of MS signal” value was −2% on kinases in BCWM.1 cells [7]; 20.2% at kinases in BCWM.1 cells [8]; 24.3% on kinases in BCWM.1 cells [9]; −7.9% at kinases in BCWM.1 cells [10]; −0.9% at kinases in BCWM.1 cells [11]; −5.1% at kinases in BCWM.1 cells [12] (RSK1 domain1). Further, the “% change of MS signal” value was −4.1% at kinases in BCWM.1 cells [12] (RSK1 domain2); 46.1% and 75.4% with kinases in BCWM.1 cells [13] (ABL, ARG, Activation Loop); 40.6% and 71.8% in the assay on kinases in BCWM.1 cells [13] (ABL, ARG, Lys1); 5.5% and 2.8% in the assay with kinases in BCWM.1 cells [13] (AurA, AurB, AurC, ATP Loop); −8.2% and −4.7% in the assay on kinases in BCWM.1 cells [13] (CK1g1, CK1g2, CK1g3, ATP Loop); 72.5% and 80.4% in the assay on kinases in BCWM.1 cells [13] (FYN, SRC, YES, Activation Loop). The “% change of MS signal” value in the assay with kinases in BCWM.1 cells [13] (JNK1, JNK2, JNK3, Lys2) is −7% and 0.5%; in the assay with kinases in BCWM.1 cells [13] (KSR1, KSR2, Activation Loop), −14.6% and −16.2%; with kinases in BCWM.1 cells [13] (MAP2K1, MAP2K2, Lys1) it was −9.2% and −1.1%; in the assay on kinases in BCWM.1 cells [13] (MAP2K1, MAP2K2, Lys2), −6.4% and −4.5%; in the assay on kinases in BCWM.1 cells [13] (MAP3K2, MAP3K3, Lys2), 0.7% and 6.8%; with kinases in BCWM.1 cells [13] (MARK3, MARK4, Lys1), −10.4% and −7.1%. Besides, the “% change of MS signal” value in the assay on kinases in BCWM.1 cells [13] (MER, TYRO3, Activation Loop) is listed as −14.7%; with kinases in BCWM.1 cells [13] (MST4, YSK1, Lys2, 90 min), 15.2%; in the assay on kinases in BCWM.1 cells [13] (NEK6, NEK7, Lys2, 90 min), −0.8%; in the assay on kinases in BCWM.1 cells [13] (setting [14]), −0.8%; with kinases in BCWM.1 cells [13] (PI4KA, PI4KAP2, ATP, 90 min), 3.6%; in the assay on kinases in BCWM.1 cells [13] (PKACa, PKCb, Lys2, 90 min), 25.3%. In addition, the “% change of MS signal” value with kinases in BCWM.1 cells [13] (ROCK1, ROCK2, Lys2, 90 min) was 1.7%; in the assay on kinases in BCWM.1 cells [13] (setting [15]), −6.1%; in the assay on kinases in BCWM.1 cells [13] (SRPK1, SRPK2, Lys1, 90 min) it was 2.5%; in the assay with kinases in BCWM.1 cells [13] (TAO1, TAO3, Lys2, 90 min) it was 9.3%; in the assay with kinases in BCWM.1 cells [13] (Wnk1, Wnk2, Wnk3, Lys2, 90 min), 4.4%; in the assay with kinases in BCWM.1 cells [13] (Wnk1, Wnk2, ATP Loop, 90 min), 7.6%. The “% change of MS signal” value with kinases in BCWM.1 cells [13] (setting [16]) was 1.8%; with kinases in BCWM.1 cells [13] (p38d, p38g, Lys2, 90 min) it was −27.1%.
